{
  "source": "patent US11541041B1",
  "about": "“Compounds that interact with the Ras superfamily for the treatment of cancers, inflammatory diseases, Rasopathies, and fibrotic disease” (Shy Therapeutics LLC, priority 2017, dated 2023)",
  "data": [
    {"test_system": "MIA-PACA2 pancreatic cancer cell lines", "assay": "Cell proliferation assay (CellTiter 96 AQueous One)", "type": "cell-based", "details": "Homo sapiens, MIA PaCa-2; 30 μM, MIA-PACA2", "procedure": "(§1) Cell lines: Tumor-derived pancreatic cancer cell lines MIA-PACA2 were purchased from ATCC and grown in complete DMEM-High Glucose medium supplemented with penicillin (100 U/mL), streptomycin (100 μg/mL), and 10% heat-inactivated FBS at 37° C. in a humidified incubator with 5% CO2.\nMethod: Cells are plated at 1000 cells/well density in 96-wells plate, starved ON, and the next day tested small molecules are added to the cells in the final concentration of 30 μM with 0.3% DMSO 3 hours prior to 10% FBS addition. After serum addition cells are incubated for 6 days at 37° C. in a humidified incubator with 5% CO2. For IC50 value determination, serial dilutions of compounds were added to cells under the same conditions.\nAssay: At the end of the incubation period, cell cultures are tested using the CellTiter 96® AQueous One Solution Cell Proliferation Assay kit (Promega Corporation, Madison, Wis.) according to the manufacturer specifications. Briefly, assay is performed by adding 20 μl of the CellTiter 96 Aqueous One Solution Reagent directly to culture wells, followed by for 1-4 hours incubation at 37° C. in a humidified incubator with 5% CO2. At the end of incubation time, absorbance at 492 nm is recorded with the 96-well plate reader Eppendorf AF2200, and degree of small molecule-dependent proliferation inhibition is calculated from raw data assuming No Serum cells value as 100%.", "units": {"inhibition at 30 µM": "%"}, "values": [
      {"smiles": "COCCOCCN(CCO)C(=O)c1csc2c(O)nc(-c3ccccn3)nc12", "inhibition at 30 µM": "1 to 25"},
      {"smiles": "COCCCCNC(=O)c1csc2nc(-c3ccccn3)nc(N3CCSCC3)c12", "inhibition at 30 µM": "1 to 25"},
      {"smiles": "COc1cncc(CCNC(=O)c2csc3nc(-c4ccccn4)nc(N4CCOCC4)c23)c1", "inhibition at 30 µM": "51 to 75"}
    ]},
    {"molecular_target": "KRas G12C mutant (Homo sapiens (Human), UniProt P01116, G12C)", "sequence (P01116-2 other isoform, or with tags, fused parts or gaps G12C)": "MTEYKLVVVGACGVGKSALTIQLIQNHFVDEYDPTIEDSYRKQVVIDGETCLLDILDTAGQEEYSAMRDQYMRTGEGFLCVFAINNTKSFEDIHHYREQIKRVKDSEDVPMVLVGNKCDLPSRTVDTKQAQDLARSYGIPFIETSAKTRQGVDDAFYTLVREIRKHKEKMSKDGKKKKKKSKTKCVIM", "assay": "Ras GTP binding domain inhibition assay", "details": "20 μM compound", "procedure": "(§2) Buffer-I: • 50 mM Tris, pH 7.5 • 150 mM NaCl (optional) • 1 mM MgCl2 • 1 mM DTT. • KRas G12D mutant protein was expressed as a His-tagged protein. Purified His-KRas G12D protein was diluted in buffer-I to a final concentration of 3-10 μg/ml. • 200 μl of the diluted His-KRas G12D protein was added to a nickel coated 96 well plate and incubated overnight at 4° C. • The next day, wells were washed 3× in 200 μl of Buffer-I. • Then 200 μl of Buffer-I were added to each well in the presence of 1% DMSO. • Tested compounds were added to the protein-coated wells at a concentration of 20 μM, and incubated for 3 hours at room temperature. While performing IC50 measurements a serial dilution of all tested concentrations was prepared.\n(§3) Then 22 μl of Cy3-GTP or Cy5-GTP was added to each well. The labeled GTP was incubated for 45 min. at room temperature. • Following GTP incubation, wells were washed 3× in Buffer-I, and 200 μl of Buffer-I were added to each well. • Following washes, the amount of bound labeled-GTP was measured with an Eppendorf AF2200 plate reader.\n(§4) By substituting KRas G12D mutant protein with KRas G12C mutant, KRas wild type, KRas Q61H mutant, KRas G12D/Q61H double mutant or KRas G12C/Q61H double mutant under the assay conditions described above, KRas G12C mutant KRas wild type, KRas Q61H mutant, KRas G12D/Q61H double mutant and KRas G12C/Q61H double mutant inhibition, respectively, were each determined.", "values": [
      {"smiles": "COCCNc1nc(-c2nccn2C)nc2sc(-c3ccccc3)c(-c3ccccc3)c12", "note": "[drawing 3568]", "% Inhibition at 20 μM, KRas G12C": "C (C = 51-75% inhibition)"}
    ]},
    {"molecular_target": "KRas Q61H mutant (Homo sapiens (Human), UniProt P01116, Q61H)", "sequence (P01116-2 other isoform, or with tags, fused parts or gaps Q61H)": "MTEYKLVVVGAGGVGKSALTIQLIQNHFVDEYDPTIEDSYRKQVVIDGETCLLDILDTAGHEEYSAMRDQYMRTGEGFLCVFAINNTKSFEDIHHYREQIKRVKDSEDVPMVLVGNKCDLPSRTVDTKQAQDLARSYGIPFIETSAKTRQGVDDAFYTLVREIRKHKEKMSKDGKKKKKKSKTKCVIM", "assay": "Ras GTP binding domain inhibition assay", "details": "20 μM compound", "procedure": "as §2, §3, §4", "units": {"inhibition at 20 µM": "%"}, "values": [
      {"smiles": "Nc1nc(-c2ccccn2)nc2c(CC3CNC3)csc12", "inhibition at 20 µM": "51 to 75"},
      {"smiles": "COC(=O)c1c(C)sc2c(O)nc(-c3ccccn3)nc12", "% Inhibition at 20 μM, KRas Q61H": "D (D = 76-100% inhibition)"},
      {"smiles": "COCCNc1nc(-c2nccn2C)nc2sc(-c3ccccc3)c(-c3ccccc3)c12", "note": "[drawing 3568]", "inhibition at 20 µM": "51 to 75"},
      {"smiles": "Cc1nc(-c2nccn2C)nc2sc(-c3ccccc3)c(-c3ccccc3)c12", "inhibition at 20 µM": "1 to 25"},
      {"smiles": "Cc1nc(-c2cn(C)cn2)nc2sc(-c3ccc(CNC(=O)OC(C)(C)C)cc3)c(-c3ccccc3)c12", "inhibition at 20 µM": "1 to 25"}
    ]},
    {"molecular_target": "KRas wild type (Homo sapiens (Human), UniProt P01116)", "sequence (P01116-2 other isoform, or with tags, fused parts or gaps)": "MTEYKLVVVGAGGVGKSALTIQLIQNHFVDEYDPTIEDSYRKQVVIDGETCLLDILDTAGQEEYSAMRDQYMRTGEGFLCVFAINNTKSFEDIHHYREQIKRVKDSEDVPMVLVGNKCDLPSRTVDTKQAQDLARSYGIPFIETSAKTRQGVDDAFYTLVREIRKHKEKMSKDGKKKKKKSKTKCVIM", "assay": "Ras GTP binding domain inhibition assay", "details": "20 μM compound", "procedure": "as §2, §3, §4", "values": [
      {"smiles": "COCCNc1nc(-c2nccn2C)nc2sc(-c3ccccc3)c(-c3ccccc3)c12", "note": "[drawing 3568]", "% Inhibition at 20 μM, KRas wild type": "A (A = 1-25% inhibition)"}
    ]},
    {"molecular_target": "KRas G12D/Q61H double mutant (Homo sapiens (Human), UniProt P01116, G12D/Q61H)", "sequence (P01116-2 other isoform, or with tags, fused parts or gaps G12D/Q61H)": "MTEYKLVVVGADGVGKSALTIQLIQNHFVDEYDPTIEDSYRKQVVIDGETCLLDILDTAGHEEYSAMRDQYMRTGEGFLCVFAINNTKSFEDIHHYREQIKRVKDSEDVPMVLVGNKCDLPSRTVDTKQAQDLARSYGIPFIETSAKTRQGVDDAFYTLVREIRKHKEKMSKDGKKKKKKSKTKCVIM", "assay": "Ras GTP binding domain inhibition assay", "details": "20 μM compound; read-out: % Inhibition at 20 μM, KRas G12D Q61H", "procedure": "as §2, §3, §4", "units": {"inhibition at 20 µM": "%"}, "values": [
      {"smiles": "Nc1nc(-c2ccccn2)nc2c(CC3CNC3)csc12", "inhibition at 20 µM": "25 to 50"},
      {"smiles": "Cc1nc(-c2nccn2C)nc2sc(-c3ccccc3)c(-c3ccccc3)c12", "inhibition at 20 µM": "1 to 25"},
      {"smiles": "Cc1nc(-c2cn(C)cn2)nc2sc(-c3ccc(CNC(=O)OC(C)(C)C)cc3)c(-c3ccccc3)c12", "inhibition at 20 µM": "1 to 25"}
    ]},
    {"molecular_target": "KRas G12C/Q61H double mutant (Homo sapiens (Human), UniProt P01116, G12C/Q61H)", "sequence (P01116-2 other isoform, or with tags, fused parts or gaps G12C/Q61H)": "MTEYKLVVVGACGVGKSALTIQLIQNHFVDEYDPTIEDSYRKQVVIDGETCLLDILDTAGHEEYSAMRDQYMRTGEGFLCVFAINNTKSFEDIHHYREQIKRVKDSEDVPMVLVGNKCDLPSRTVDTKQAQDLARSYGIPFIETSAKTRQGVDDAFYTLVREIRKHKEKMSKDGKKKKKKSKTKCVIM", "assay": "Ras GTP binding domain inhibition assay", "details": "20 μM compound", "procedure": "as §2, §3, §4", "units": {"inhibition at 20 µM": "%"}, "values": [
      {"smiles": "Nc1nc(-c2ccccn2)nc2c(CC3CNC3)csc12", "inhibition at 20 µM": "51 to 75"},
      {"smiles": "COCCNc1nc(-c2nccn2C)nc2sc(-c3ccccc3)c(-c3ccccc3)c12", "note": "[drawing 3568]", "inhibition at 20 µM": "51 to 75"},
      {"smiles": "Cc1nc(-c2nccn2C)nc2sc(-c3ccccc3)c(-c3ccccc3)c12", "inhibition at 20 µM": "1 to 25"},
      {"smiles": "Cc1nc(-c2cn(C)cn2)nc2sc(-c3ccc(CNC(=O)OC(C)(C)C)cc3)c(-c3ccccc3)c12", "inhibition at 20 µM": "1 to 25"}
    ]},
    {"test_system": "MIA-PACA2 pancreatic cancer cell lines", "assay": "Cell proliferation assay, alternate assay conditions (DAPI staining)", "type": "cell-based", "details": "Homo sapiens, MIA PaCa-2; * = tested at 10 μM, alternate conditions, MIA-PACA2", "procedure": "as §1\n(§5) Method: Cells are plated at 4000 cells/well density in 96-wells plate. The next day tested small molecules are added to the cells in the final concentration of 10 μM in the presence of 0.3% DMSO and 10% FBS. After small molecules addition, cells are incubated for 4 days at 37° C. in a humidified incubator with 5% CO2. For IC50 value determination, serial dilutions of compounds were added to cells under the same conditions.\n(§6) Assay: At the end of the incubation period, cell cultures are fixed with a 50-50 mixture (v/v) acetone-methanol for 10 minutes at −20° C., followed by rehydration in PBS for 10 minutes at room temperature. After rehydration, cells are stained with DAPI (1 μg/ml) in PBS for 10 minutes at room temperature, followed by 3 washes with PBS. After staining, DAPI fluorescence is recorded (358 nm excitation/461 nm emission) with the 96-well plate reader Molecular Devices Spectramax M3; degree of small mole-cule-dependent proliferation inhibition is calculated from raw data assuming No Serum cells value as 100%.", "units": {"inhibition at 10 µM": "%"}, "values": [
      {"smiles": "COCC(C)Nc1nc(-c2ccccn2)nc2sc(-c3ccncc3)c(-c3ccccc3)c12", "note": "(stereo not shown)", "inhibition at 10 µM": "51 to 75"},
      {"smiles": "Cn1ccnc1-c1nc(NCCOS)c2c(-c3ccccn3)c(-c3ccccc3)sc2n1", "inhibition at 10 µM": "76 to 100"},
      {"smiles": "COc1nc(-c2ccccn2)nc2c(-c3cn(C)nc3C(C)C)csc12", "inhibition at 10 µM": "76 to 100"},
      {"smiles": "COc1nc(-c2ccccn2)nc2c(-c3cccc(C#N)c3)csc12", "inhibition at 10 µM": "76 to 100"},
      {"smiles": "COc1nc(-c2ccccn2)nc2c(-c3cccc(O)c3)csc12", "inhibition at 10 µM": "76 to 100"},
      {"smiles": "COOCCNc1nc(-c2nccn2C)nc2sc(-c3ccccc3)c(-c3ccccc3)c12", "inhibition at 10 µM": "76 to 100"},
      {"smiles": "COc1nc(-c2ccccn2)nc2c(-c3cc(CN4CCCC4)ccc3F)csc12", "inhibition at 10 µM": "76 to 100"},
      {"smiles": "SOCCNc1nc(-c2ccccn2)nc2sc(-c3ccccc3)c(-c3ccccn3)c12", "inhibition at 10 µM": "76 to 100"},
      {"smiles": "O=c1[nH]c(-c2ccccn2)nc2c(C3O[C@H](CO)[C@@H](O)[C@H]3O)csc12", "note": "(stereo partly shown)", "inhibition at 10 µM": "76 to 100"}
    ]},
    {"test_system": "MIA-PACA2 pancreatic cancer cell lines", "assay": "Cell proliferation assay, alternate assay conditions (DAPI staining)", "type": "cell-based", "details": "Homo sapiens, MIA PaCa-2; MIA-PACA2 proliferation, same assay as % inhibition (alternate conditions)", "procedure": "as §1, §5, §6", "units": {"IC50": "nM"}, "values": [
      {"smiles": "Cn1ccnc1-c1nc(NCCOS)c2c(-c3ccccn3)c(-c3ccccc3)sc2n1", "IC50": "501 to 1000"},
      {"smiles": "COOCCNc1nc(-c2nccn2C)nc2sc(-c3ccccc3)c(-c3ccccc3)c12", "IC50": "501 to 1000"}
    ]}
  ]
}
